In patent publication US20150183721A1, “AMINO-ALCOHOL ANALOGUES AND USES THEREOF” (YISSUM RESEARCH DEVELOPMENT COMPANY OF THE HEBREW …, priority 2009, published 2015):
“Also recorded” adds a separate entry of the source. Like-named read-outs stand apart in the source and are kept apart here.

Columns and labels:
[1] = Solubility of compounds in DMSO, ethanol and Solutol-HS15 (20 mM stock solutions); format: physicochemical
Experimental: General Procedure for the Solutol Emulsions Preparation
The amino-alcohol compound of the invention (4 μmol) was mixed with Solutol HS15 (6.0 mg) and heated to 70-80° C. Hot water (1 ml) was added to the mixture and stirred thoroughly. Thickening occurs initially due to hydration and reaches a maximum when half of the water has been added. The viscosity decreases as more water is added.
The solubility of compounds of the invention in ethanol and DMSO was tested in order to study their cytotoxicity.

[2] = system: A2780cisR (ovarian carcinoma-cisPt resistance cell line); test: Cytotoxicity test, IC50 determination by MTT test; format: cell-based; conditions: 24 hr incubation, 20000 cells/well, 10% serum, read-out: IC50 ± SD (MTT-Test), A2780cisR
Experimental: (§1) Cytotoxicity Tests (IC50 Determination by MTT test)
(§2) The cytotoxicity of the compounds of the invention A1-A12 was tested in comparison to cis-Pt in four cancer cell-lines: […]
A2780cisR (ovarian carcinoma-cisPt resistance cell line), […]
(§3) HT-29 (Human colon adenocarcinoma grade II) by MTT test after an incubation of 24 hours.
(§4) Culture Medium Preparation for Attached Cell-lines: A2780, A2780cisR, CRL-5803, HT-29. • Medium RPMI-1640: 86% • Serum (FCS-fatal calf serum/FBS-fatal bovine serum): 10% • L-Glutamine: 1% • Antibiotics-penicillin-streptomycin(P/S): 1% • Na pyruvate: 1% • HEPES: 1%

[3] = system: A2780 (ovarian carcinoma cell line); test: Cytotoxicity test, IC50 determination by MTT test; format: cell-based; conditions: 24 hr incubation, 20000 cells/well, 10% serum, read-out: IC50 ± SD (MTT-Test), A2780
Experimental: as §1
(§5) The cytotoxicity of the compounds of the invention A1-A12 was tested in comparison to cis-Pt in four cancer cell-lines:
A2780 (ovarian carcinoma cell line), […]
as §3, §4

[4] = system: CRL-5803 (non-small cell lung carcinoma cell line); test: Cytotoxicity test, IC50 determination by MTT test; format: cell-based; conditions: 24 hr incubation, 20000 cells/well, 10% serum, read-out: IC50 ± SD (MTT-Test), CRL5803
Experimental: as §1, §2
(§6) CRL-5803 (non-small cell lung carcinoma cell line), and
as §3, §4

[5] = system: HT-29 (Human colon adenocarcinoma grade II); test: Cytotoxicity test, IC50 determination by MTT test; format: cell-based; conditions: 24 hr incubation, 20000 cells/well, 10% serum, read-out: IC50 ± SD (MTT-Test), HT-29
Experimental: as §1, §2, §3, §4

Caspase-3 = test: Apoptosis determination by Caspase-3 assay (EnzCheck Caspase-3 Assay Kit #2); format: cell-based; conditions: 8 hr incubation
Experimental: Apoptosis Determination by Caspase-3 Assay
The assay was done according to the protocol of EnzCheck Caspase-3 Assay Kit #2 (Invitrogen) [Ref: 4].
Caspase-3 was checked using invitrogene protocol. 8 hr incubation was done.

[6] = system: SPM formation in A2780 cells; test: Enzymatic assay in cells: formation of fluorescent SPM from Bodipy-12-CER (SMS inhibition), HPLC; format: cell-based; conditions: 72 hr incubation in total, related to the control
Experimental: (§7) Enzymatic Assay in Cells (SMS, GCS and CDase Enzyme inhibition Studies) • Plate 10,000 cells in 0.5 ml culture media per well in a 48 well plate. • Incubate (37° C., 5% CO2) overnight to allow the cells to attach to the wells. • Add 10 μl of the fluorescent reagent BodiPy-12-Cer 0.5 μM/well. • After 48 hr incubation with the BodiPy-12-Cer, add 10 μl of the drug of interest dissolved in DMSO/Ethanol/solutol to each well. • Incubate (37° C., 5% CO2) for another 24 hr. • Remove the media. • Wash each well with 200 μl PBS. • Add 2000 trypsin allow sitting for 5 minutes in incubator. • Neutralize Trypsin with culture medium (complete to 1 ml) • Add suspension to 1.5 ml ephendorf. • Centrifuge for 5 minutes at 1200 rpm then remove the media. • Extract the cells with 1 ml of 1:2 CH2Cl2:MeOH by strong vortex stirring followed by centrifuge for 5 minutes at 13400 rpm. Then add the extraction into 2 ml ephendorf. • Extract the cells again with the same procedure with 1 ml of 1:1 CH2Cl2:MeOH. • Remove the solvent. • Add 2000 ethanol into the 2 ml ephendorf, do strong vortex stirring followed by centrifuge for 5 minutes at 13400 rpm. • Take 150 μl of the above sample and inject to the HPLC to quantify the relative metabolite relatively to control samples. • HPLC method conditions are:
(§8) Conditions: RP-8 Column, EX. λ 505 nm, EM. λ 530 nm
(§9) A fluorescent procedure was utilized in order to study the enzymatic inhibition of glucosylceramide synthase (GCS), ceramidases (CDase) and sphingomyelin synthase (SMS) enzymes, which can shed some light on a possible mechanism for ceramide accumulation and apoptosis. The fluorescent procedure was based on a 48-hr incubation of cancer cells with the fluorescent substrate, Bodipy (4,4-difluoro-4-bora-3a,4a-diaza-s-indacene), conjugated ceramide (Bodipy-12-CER) followed by another 24-hr period of incubation in the presence of nontoxic concentrations of compounds of the invention (72 hr incubation in total). After a predetermine incubation period, cells were washed, their lipids were extracted and the various lipids containing fluorescent fatty acid-ceramide, SPM and GC were quantified by HPLC.

[7] = system: SPM formation in A2780cisR cells; test: as above; format: cell-based; conditions: 72 hr incubation in total, related to the control
Experimental: as §7, §8, §9

[8] = system: SPM formation in CRL5803 cells; test: as above; format: cell-based; conditions: nontoxic concentrations (A2: 4, 6, 8, 12 μM/well; A10: 0.5, 1, 2, 4 μM/well), 72 hr
Experimental: as §7, §8, §9

[9] = system: A2780, A2780cisR, CRL-5803, HT-29; test: Cytotoxicity (MTT), overall statements on the four cancer cell-lines; format: cell-based; conditions: 24 hr, compared to cis-Pt
Experimental: as §1, §5
A2780 (ovarian carcinoma cell line),
A2780cisR (ovarian carcinoma-cisPt resistance cell line),
as §6, §3, §4

[10] = system: SPM formation in HT-29 cells; test: Enzymatic assay in cells: formation of fluorescent SPM from Bodipy-12-CER (SMS inhibition), HPLC; format: cell-based, Human; conditions: nontoxic concentrations (A2: 4, 6, 8, 12 μM/well; A10: 0.5, 1, 2, 4 μM/well), 72 hr
Experimental: as §7
Conditions: RP-8 Column, EX. λ 505 nm, EM. λ 530 nm […]

[11] = Solutol-HS15 lipidic emulsion, aqueous with cosolvent or surfactant or cyclodextrin, read-out: Solubility, Solutol-HS15
[12] = organic solvent or mixture, DMSO, 20 mM stock solutions, read-out: Solubility, DMSO
[13] = organic solvent or mixture, ethanol, 20 mM stock solutions, read-out: Solubility, Ethanol
[14] = Homo sapiens, A2780cisR, solutol solutions
[15] = Homo sapiens, A2780, solutol solutions
[16] = Homo sapiens, HT-29, solutol solutions
[17] = Homo sapiens, A2780cisR, ethanol solutions
[18] = Homo sapiens, A2780, ethanol solutions
[19] = Homo sapiens, HT-29, ethanol solutions

| solubility [1, 11] | solubility [1, 12] | solubility [1, 13] | SMILES | IC50 [2, 14] | IC50 [3, 15] | IC50 ([4]; solutol solutions) | IC50 [5, 16] | IC50 ([4]; ethanol solutions) | Solubility, Ethanol ([1]; ethanol, 20 mM stock solutions) | IC50 ([2]; ethanol solutions) | IC50 ([3]; ethanol solutions) | IC50 ([5]; ethanol solutions) | also measured |
| --- | --- | --- | --- | --- | --- | --- | --- | --- | --- | --- | --- | --- | --- |
| > 4 mM | < 20 mM | < 20 mM | CCCCCCCCCCCCCCCCC(O)CNCCCCCC (stereo not drawn) [Compound A3, 1-Hexyl-amino-octadecan-2-ol] | 9 ± 1 µM | 11 ± 1 µM | 18 ± 2 µM | 19 ± 5 µM |  |  |  |  |  |  |
| > 4 mM | < 20 mM | < 20 mM | CCCCCCCCCCCCCCCCC(O)CNCCCCCCCC (stereo not drawn) [Compound A4, 1-Octyl-amino-octadecan-2-ol] | 12 ± 2 µM | 14 ± 3 µM | 29 ± 4 µM | 15 ± 6 µM |  |  |  |  |  |  |
| > 4 mM | < 20 mM | < 20 mM | CCCCCCCCCCCCCCCCC(O)CNCCCCCCCCCCCC (stereo not drawn) [Compound A5, 1-Dodecyl-amino-octadecan-2-ol] | > 100 µM | > 100 µM | > 100 µM | > 100 µM |  |  |  |  |  |  |

Further lines, the molecule ahead of its results:

| SMILES | solubility [1, 11] | solubility [1, 12] | solubility [1, 13] | IC50 [2, 14] | IC50 [3, 15] | IC50 ([4]; solutol solutions) | IC50 [5, 16] | IC50 ([4]; ethanol solutions) | Solubility, Ethanol ([1]; ethanol, 20 mM stock solutions) | IC50 ([2]; ethanol solutions) | IC50 ([3]; ethanol solutions) | IC50 ([5]; ethanol solutions) | also measured |
| --- | --- | --- | --- | --- | --- | --- | --- | --- | --- | --- | --- | --- | --- |
| CCCCCCCCCCCCCCCCC(O)CN(CC)CC (stereo not drawn) [Compound A1, 1-DEA-amino-octadecan-2-ol] | > 4 mM | > 20 mM | > 20 mM | 21 ± 1 µM | 17 ± 4 µM | 40 ± 3 µM | 24 ± 4 µM |  |  |  |  |  | solubility in ethanol and DMSO ([1]; 20 mM stock solutions): good solubility in both solvents |
| CCCCCCCCCCCCCCCCC(O)CNCCCC (stereo not drawn) [Compound A2, 1-Butyl-amino-octadecan-2-ol] | > 4 mM |  | < 20 mM | 12 ± 3 µM | 11 ± 3 µM | 32 ± 4 µM | 16 ± 2 µM |  |  |  |  |  | solubility in ethanol and DMSO ([1]; 20 mM stock solutions): only soluble in DMSO; Solubility, DMSO ([1]; DMSO, 20 mM stock solutions): ✓*; Caspase-3 increase (Caspase-3; 20 μM): 3 fold; inhibition at 6 µM ([6]; Homo sapiens, 6 μM): ~10%; inhibition of SPM formation ([7]; 6 μM): no significant effect |
| CCCCCCCCCC(O)CNCCCCCC (stereo not drawn) [Compound A8, 1-Hexyl-amino-undecan-2-ol] |  | > 20 mM | > 20 mM |  |  |  |  | 33 ± 6 µM |  |  |  |  | IC50 [2, 17]: 22 ± 3 µM; IC50 [3, 18]: 16 ± 1 µM; IC50 [5, 19]: 33 ± 4 µM |
| CCCCCCCCCC(O)CNCCCCCCCC (stereo not drawn) [Compound A9, 1-Octyl-amino-undecan-2-ol] |  | < 20 mM |  |  |  |  |  | 14 ± 1 µM | ✓* |  |  |  | IC50 [2, 17]: 10 ± 1 µM; IC50 [3, 18]: 7 ± 1 µM; IC50 [5, 19]: 11 ± 2 µM |
| CCCCCCCCCCCCNCC(O)CCCCCCCCC (stereo not drawn) [Compound A10, 1-Dodecyl-amino-undecan-2-ol] |  |  |  |  |  |  |  | 10 ± 2 µM | ✓* | 4 ± 1 µM | 4 ± 1 µM | 8 ± 2 µM | Caspase-3 increase (Caspase-3; 10 μM): 7 fold; SPM formation related to the control (in words) [8]: reduction in SPM formation; effect on SPM formation ([6]; 0.5 μM): about 22%; effect on SPM formation ([7]; 0.5 μM): ~8%; anticancer activity (in words) [9]: most active; also recorded: highest activity; SPM formation related to the control (in words) [10]: reduction in SPM formation |
| CCCCCCCCCCCCCCNCC(O)CCCCCCCCC (stereo not drawn) [Compound A11, 1-tetradecyl-amino-undecan-2-ol] |  |  |  |  |  |  |  | 33 ± 6 µM | ✓* | 9 ± 3 µM | 9 ± 2 µM | 30 ± 7 µM |  |
| CCCCCCCCCCCCCCCCNCC(O)CCCCCCCCC (stereo not drawn) [Compound A12, 1-hexadecyl-amino-undecan-2-ol] |  |  |  |  |  |  |  | > 100 µM | ✓* | > 100 µM | > 100 µM | > 100 µM |  |
| N.N.[Cl][Pt][Cl] [cis-Pt, reference compound] |  |  |  |  |  | > 100 µM |  | > 100 µM |  | > 100 µM | 30 ± 1 µM | > 100 µM | IC50 ([2]; solutol solutions): > 100 µM; IC50 ([3]; solutol solutions): 30 ± 1 µM; IC50 ([5]; solutol solutions): > 100 µM |
